Patent US10905704B2, “Agents and methods using thereof for the prevention and treatment of stem cell muscle disorders” (ECOLE POLYTECHNIQUE FEDERALE DE LAUSANNE (EPFL), priority 2015, dated 2021)

Assays:
[1] = system: muscle stem cells (MuSCs); test: MuSC numbers in muscle of NR-fed young and aged mice (FACS, PAX7 staining); assay type: in vivo, C57BL/6J mice; conditions: for MuSC numbers (FACS): NR 400 mg/kg/day in diet for 6 weeks, FIG. 3A-C
Procedure: Animals. Young (1 month old) and aged (20-24 months old) C57BL/6JRj mice, purchased from Janvier Labs, and five weeks old male C57BL/10SnJ mice or C57BL/10ScSn-Dmdmdx/J, purchased from The Jackson Laboratory, were fed with pellets containing vehicle or NR (400 mg/kg/day) for 6-8 weeks. The pellets were prepared by mixing powdered chow diet (D12450B, Research Diets Inc.) with water or with NR dissolved in water. Pellets were dried under a laminar flow hood for 48 hours. All mice were housed in micro-isolator cages in a room illuminated from 7:00 am -7:00 pm with ad libitum access to diet and water. FACS based muscle stem cell isolation. Gastrocnemius, soleus, quadriceps, and tibialis anterior muscles from both limbs were excised and transferred into PBS on ice. All muscles were trimmed, minced and digested with 0.1 mg/ml of type II collagenase (Sigma) in PBS for 15 min at 37° C. Samples were then centrifuged at 750 g for 5 min and further digested in 1 mg/ml of collagenase/dispase (Roche) for 30 mins at 37° C. Muscle slurries were sequentially filtered through 100, 70 and 40 μm cell strainers. The isolated cells were then washed in washing buffer (PBS+2.5% FBS) then resuspended in 200 μl of washing buffer and immediately stained with antibodies, including the MuSC markers CD31 (1:800, eBioscience, eFluor450 conjugated); CD34 (1:200, eBioscience, eFluor660 conjugated); CD45 (1:200, eBioscience, eFluor450 conjugated); CD11b (1:400, eBioscience, eFluor450 conjugated); Sca-1 (1:1000, eBioscience, PE-Cy7 conjugated); and α7 integrin (1:300, MBL) for 30 min at 4° C. Secondary staining was performed with a mixture of goat anti-mouse antibody (1:800, Life technologies, Alexa Fluor 488 conjugated) and propidium Iodide (PI, Sigma) for 15 min at 4° C. in the dark. Stained cells were analysed and sorted using the FACSAria II instrument (BD Biosciences). Debris and dead cells were excluded by forward scatter, side scatter and PI gating. Cells were sorted either directly on slides for immunostaining and into TriPure (Roche) reagent for RNA extraction. Histology. […]

MuSCs = test: MuSC autofluorescence (405/450) as measure of relative NAD(P)H, cellular redox ratio; assay type: cell-based; conditions: MuSCs isolated from NR-treated Mdx mice, FIG. 6G-I
Procedure: Determining cellular redox ratio. NAD+ and NADH quantification and ratio were measured using a kit from Biovision (Milpitas, Calif.), following providers' instructions. With continuous muscle regeneration, MuSCs in Mdx mice are abnormally active at a young age, leading to MuSC depletion and dysfunction later in life. […] Thus the self-renewal capacity of Mdx mouse MuSCs was tested. The cellular redox ratio decreases as MuSCs differentiate (Fulco et al., 2003, Molecular Cell, 12: 51), which can be detected by the increase in 405/450 autofluorescence (Quinn et al., 2013, Scientific Reports, 3: 3432). […] We then performed β-galactosidase staining on primary MuSCs isolated from Mdx mice, with or without NR treatment, and cultured these cells with NR or vehicle in vitro. […] The prevention of MuSCs senescence in NR-treated Mdx mice was confirmed by the attenuation of γH2AX and cleaved caspase-3 immunostaining (FIG. 6K). To evaluate MuSC function, CTX-induced muscle regeneration was examined in NR-treated mice.

Grip strength test = assay type: in vivo, C57BL/6J mice; conditions: aged mice, NR diet, FIG. 3G
Procedure: Grip strength test. Muscle strength was assessed by a grip strength behavior task. The grasp strength of each mouse for all four limbs was measured on a pull-grid assembly connected to a grip strength meter (Columbus Instruments). The mouse was drawn along a straight line parallel to the grid until the grip is broken, providing the peak force in grams. This was repeated 4 times with 5 minute intervals between measurements.

[2] = system: tibialis anterior (TA) muscle; test: Cardiotoxin-induced muscle damage, regeneration of TA muscle; assay type: in vivo, C57BL/6J mice; conditions: for PAX7-positive MuSCs after CTX-induced damage: 7 days after CTX
Procedure: Cardiotoxin-induced muscle damage. Animals were anesthetized using Isoflurane in oxygen from a precision vaporizer. 50 μl of 20 μM Naje mossambica mossambica cardiotoxin (Sigma) was injected intramuscularly cross the skin and directly into the tibialis anterior (TA) muscle. Mice were sacrificed at 7 and 14 days after injury. TA muscles were immediately embedded in Thermo Scientific™ Shandon™ Cryomatrix™ and frozen in isopentane, cooled in liquid nitrogen, for 2 mins before being transferred to dry ice and stored at −80° C.
Histology. TA muscles were harvested from anaesthetized mice and immediately frozen in Tissue-TEK® OCT compound (PST). 8-μm cryosections were collected and fixed with 4% paraformaldehyde, which are either stained with haematoxylin/eosin (HE) or antibodies. For immunostainings, heat activated antigen retrieval was performed in pH 6.0 citrate buffer for 10 min at 65° C. After washing with PBS-0.1% tween 20 (PBST), the sections were blocked with 10% affinipure Fab goat anti mouse IgG (Jackson Immunoresearch) in PBST for 60 min and PBST containing 2% BSA and 5% goat serum for 30 min at room temperature. Primary antibodies were then applied over night at 4° C. The following antibodies were used: anti-eMHC (Developmental Studies Hybridoma Bank, DSHB, University of Iowa), anti-Pax7 (DSHB, University of Iowa), anti-Laminin (Sigma). Subsequently, the slides were washed in PBST and incubated with appropriate secondary antibodies and labeling dyes. For immunofluorescence, secondary antibodies were coupled to Alexa-488 or Alexa-568 fluorochromes (Life technology), and nuclei were stained with DAPI (Invitrogen). After washing in PBST, tissue sections were mounted with Dako mounting medium (Dako).

Compound: NC(=O)c1ccc[n+]([C@@H]2O[C@H](CO)[C@@H](O)[C@H]2O)c1 [NR, nicotinamide riboside]
- MuSC numbers (FACS) ([1]; aged mice): attenuated the loss of MuSC numbers during aging
- MuSC numbers by PAX7 staining of TA muscle ([1]; aged mice, NR diet, FIG. 3D): increase in aged MuSC numbers was confirmed
- MuSC numbers (FACS) ([1]; young mice): evoking gains in younger mice
- 405/450 autofluorescence of MuSCs (MuSCs): significant reduction in autofluorescence
- limb grip strength (Grip strength test): improvements
- muscle regeneration after CTX-induced muscle damage (H/E) ([2]; aged mice, 7 and 14 days of regeneration, FIG. 3H): accelerated muscle regeneration
- PAX7-positive MuSCs after CTX-induced damage ([2]; aged mice, FIG. 3I-J): increases in PAX7-positive MuSCs
- embryonic myosin heavy chain (eMyHC) staining, newly regenerated fibers ([2]; aged mice, 7 days after CTX-induced damage, FIG. 3L): improvements in embryonic myosin heavy chain staining
- MYOD1-positive PAX7 immunostained cells (stemness) ([2]; aged mice, 7 days after muscle damage, FIG. 3K): reduction in MYOD1-positive PAX7 immunostained cells
- muscle regeneration after CTX-induced muscle damage ([2]; young mice): accelerated muscle regeneration
- PAX7-positive MuSCs after CTX-induced damage ([2]; young mice): trend to increase
